Consider 12 compounds from patent publication US20250108064A1, “PHOSPHATE PRODRUGS OF CANNABINOIDS” (priority 2021, published 2025).

Each structure is given as a SMILES string. Where only a bound is given, the exact number is not on record here.

A short description of series [1]: Liver microsome stability assay (HLM). Format: in vitro ADME. To be noted: human, microsomes, pH 7.4; 3 μM test compound, NADPH; read-out: T½ in HLM. The procedure:
General Experimental: Human and mouse liver microsomes were purchased from Xenotech at 20 mg/mL. NADPH (Sigma-Aldrich) 10 mM stocks were prepared in deionized water.
Procedure for Liver Microsome Stability Assay: Test compounds and positive controls were dissolved in 100% DMSO to make 10 mM stock solutions. Verapamil (Sigma-Aldrich) and diphenhydramine (Sigma-Aldrich) were used as positive controls for both human liver microsomes (HLM) and mouse liver microsomes (MLM). The 10 mM stock solutions of test and control compounds were further diluted in potassium phosphate buffer (100 mM, pH 7.4) to 500 μM to ensure that the organic solvent content was <0.2%. The liver microsome (HLM or MLM) assay was prepared in a 1.5 mL Eppendorf tube with a final volume of 1100 μL for duplicate runs. Each reaction contained phosphate buffer (928.4 μL), liver microsomes (55 μL), and test compound (6.6 μL of 500 μM), resulting in a final concentration of 3 μM for the test compound. The reaction was initiated with 110 μL of 10 mM NADPH. Aliquots (100 μL) were removed in duplicate at 0, 5, 10, 15, and 30 min and quenched in […] of 100% cold methanol which contained internal standard (ISTD: d5-7-ethoxy coumarin 2 μM). The aliquots were centrifuged at 12,000 g for 5 min, and the supernatant was transferred and placed in an LC-MS vial. Each time point was assessed by LC-MS/MS, and the area under the m/z curve (AUC), based on the MRM transition, was integrated w.r.t the ISTD. Positive controls were conducted at a final volume of 550 μL to enable a single run for each time point. Negative controls in the absence of NADPH were performed with the test and control compounds, respectively, at a final volume of 150 μL and measured at the most prolonged time point. Control compounds were processed and analyzed like test compounds. Each time point was run in triplicates on LC-MS/MS followed by in-between blank washes to avoid the carryover and to equilibrate the column. Half-life (T1/2) was calculated using the data obtained from LC-MS/MS and by plotting ln (% remaining of the parent prodrug) versus time and performing linear regression to determine slope. Slope=−k and T1/2=0.693/k for first-order kinetics.
A general note: Microsomes from liver hold many membrane-bound enzymes, among them those of drug oxidation.

Series [2] can be described thus: Plasma stability assay (human plasma). Type of series: in vitro ADME. To be noted: 37° C., read-out: T½ in human plasma (converted). How it is done:
General Experimental: Procaine and Procainamide were purchased from Sigma-Aldrich. Human plasma was obtained from BioIVT (Cat. No. […]2N) and 1X Dulbecco's PBS (pH 7.4, Gibco) was obtained from Thermos Fischer. Stock solutions were prepared in 100% DMSO, and suitable dilutions of target analytes were prepared in methanol for method development.
Procedure for Plasma Stability Assay: Test compounds were dissolved in DMSO to make a stock solution of 10 mM and then diluted to 500 μM in buffer (or 70% MeOH). Human plasma was thawed at ambient temperature and is aliquoted ([…]) to a 1.5 mL Eppendorf tube in duplicates (A and B) for each compound. Plasma was incubated at 37° C. for 10 minutes in an incubator shaker at 150 rpm; the reaction was initiated by the addition of the test compound (6.0 μL) and vortex mixing. The total reaction volume was 1000 μL where the final organic solvent concentrations were 0.6% MeOH and 0.03% DMSO. The spiked plasma samples were incubated at 37° C. for 4 hrs. The reactions were terminated at time points 0, 15, 30, 60, 120, 180, and 240 min by taking a 100 μL aliquot from the test incubation mixture and immediately quenching it in ice-cold acetonitrile containing internal standard (150 μL with 2 μM ISTD), followed by a quick vortex mixing. In addition, matrix blank was prepared by adding acetonitrile solutions containing ISTD to plasma samples without any of the analytes or control compounds. Also, an additional tube was made to measure compound degradation in PBS buffer. The samples were centrifuged at 15000 rpm for 25 min at 4° C. The supernatant was transferred to an LC-MS vial for analysis by LC/MS-MS. Each time point was run in duplicates followed by in-between blank washes to avoid the carryover and to equilibrate the column. Half-life (T1/2) was calculated using the data obtained from LC-MS/MS and by plotting ln (% remaining of the parent prodrug) versus time and performing linear regression to determine slope. Slope=−k and T1/2=0.693/k for first-order kinetics.
These positive controls were run in parallel to test the systems for competency.

A further series in a line: physchem. Type of series: physicochemical. To be noted: aqueous buffer, kinetic from dmso stock; nephelometry, PBS pH 7.0-7.3, 1% DMSO, 25° C., 90 min. The procedure: General Experimental: Nephelometry experiments were performed using untreated Corning® Costar® 96-well black polystyrene plates with clear flat bottoms. Sample stock solutions and serial dilutions were prepared with DriSolv® DMSO purchased from MilliporeSigma. All 100-fold dilutions and replicate experiments were prepared using Gibco® Dulbecco's phosphate-buffered saline (DPBS, no calcium, no magnesium) with a pH range of 7.0-7.3 as aqueous media. […] Nephelometry data was obtained using a NEPHELOstar® microplate reader and processed with MARS data analysis software from BMG LabTech.
Procedure for Nephelometry Experiments: Tested compounds were dissolved in 100% DMSO to make stock solutions of specified concentrations, ranging from 10 mM minimum up to 50 mM maximum. The sample then underwent serial dilution in a 96-well plate (Corning® Costar®). Well A1 of the plate contained 100% DMSO. […] Using a 12 channel multichannel pipette, 2.5 μL of sample from row A was transferred to each well in row B through row H of the plate. Next, 30 μL of PBS (pH=7.0-7.3) was added to row B through row H, providing each well with 32.5 μL. The plate was then incubated for 30 sec with shaking. Finally, 217.5 μL of PBS buffer was added to row B through row H, and the entire plate was incubated with shaking at 25° C. for 90 min. Note: The final volume of DMSO in actual experiments with PBS buffer was 1% throughout the plate. After 90 min, the 96-well plate was analyzed with a NEPHELOstar® instrument and the data was processed with MARS data analysis software.

In the case of `C=C(C)[C@@H]1CCC(C)=C[C@H]1c1c(O)cc(CCCCC)cc1OC(=O)C1CC(OP(=O)(O)O)C1.N.N` (stereo partly drawn) [7c, 3-((((1′R,2′R)-6-hydroxy-5′-methyl-4-pentyl-2′-(prop-1-en-2-yl)-1′,2′,3′,4′-tetrahydro-[1,1′-biphenyl]-2-yl)oxy)carbonyl)cyclobutyl phosphate di-ammonium salt], the half-life is 53 min in series [1] and 432 min in series [2]. Moreover, the solubility (commonly how much of the substance goes into solution per volume) in the series “physchem” was above 500 µM.
Consider `C=C(C)[C@@H]1CCC(C)=C[C@H]1c1c(O)cc(CCCCC)cc1OC(=O)C(C)OP(=O)(O)O.N.N` (stereo partly drawn) [7d, 1-(((1′R,2′R)-6-hydroxy-5′-methyl-4-pentyl-2′-(prop-1-en-2-yl)-1′,2′,3′,4′-tetrahydro-[1,1′-biphenyl]-2-yl)oxy)-1-oxopropan-2-yl phosphate di-ammonium salt], for which the half-life in series [1] is 50 min; in series [2] (unit min), 21 min. Further, the solubility in “physchem” was above 500 µM.
`C=C(C)[C@@H]1CCC(C)=C[C@H]1c1c(O)cc(CCCCC)cc1OC(=O)C(C)(C)OP(=O)(O)O.N.N` [7e, 1-(((1′R,2′R)-6-hydroxy-5′-methyl-4-pentyl-2′-(prop-1-en-2-yl)-1′,2′,3′,4′-tetrahydro-[1,1′-biphenyl]-2-yl)oxy)-2-methyl-1-oxopropan-2-yl phosphate di-ammonium salt]: in series [2] (unit min), the half-life was 24 min. The same compound displayed a solubility in “physchem” above 500 µM.
On to `C=C(C)[C@@H]1CCC(C)=C[C@H]1c1c(O)cc(CCCCC)cc1OC(=O)C1(OP(=O)(O)OC(C)C)CC1.N` [14a, 1-((((1′R,2′R)-6-hydroxy-5′-methyl-4-pentyl-2′-(prop-1-en-2-yl)-1′,2′,3′,4′-tetrahydro-[1,1′-biphenyl]-2-yl)oxy)carbonyl)cyclopropyl isopropyl phosphate ammonium salt], for which the half-life in series [1] is 13 min; in series [2], above 180 min. For the same compound, the solubility in “physchem” is above 500 µM.
Taken in the same sequence, the figures for `C=C(C)[C@@H]1CCC(C)=C[C@H]1c1c(O)cc(CCCCC)cc1OC(=O)C1(OP(=O)(O)OCCCCC)CC1.N` [14b, 1-((((1′R,2′R)-6-hydroxy-5′-methyl-4-pentyl-2′-(prop-1-en-2-yl)-1′,2′,3′,4′-tetrahydro-[1,1′-biphenyl]-2-yl)oxy)carbonyl)cyclopropyl pentyl phosphate ammonium salt] were 24 min, 576 min and 276 ± 4.52 µM.
The corresponding values for `C=C(C)[C@@H]1CCC(C)=C[C@H]1c1c(O)cc(CCCCC)cc1OC(=O)C1(OP(=O)(O)OCCC(C)C)CC1.N` [14c, 1-((((1′R,2′R)-6-hydroxy-5′-methyl-4-pentyl-2′-(prop-1-en-2-yl)-1′,2′,3′,4′-tetrahydro-[1,1′-biphenyl]-2-yl)oxy)carbonyl)cyclopropyl isopentyl phosphate ammonium salt] are 24 min, above 240 min and 345 ± 4.51 µM.
The corresponding values for `C=C(C)[C@@H]1CCC(C)=C[C@H]1c1c(O)cc(CCCCC)cc1OC(=O)C1(OP(=O)(O)OCCCCCC)CC1.N` [14d, hexyl (1-((((1′R,2′R)-6-hydroxy-5′-methyl-4-pentyl-2′-(prop-1-en-2-yl)-1′,2′,3′,4′-tetrahydro-[1,1′-biphenyl]-2-yl)oxy)carbonyl)cyclopropyl) phosphate ammonium salt] are 32 min, above 240 min and 98 ± 1.24 µM.
As for `C=C(C)[C@@H]1CCC(C)=C[C@H]1c1c(O)cc(CCCCC)cc1OC(=O)C1(OP(=O)(O)OCCCCCCC)CC1.N` [14e, heptyl (1-((((1′R,2′R)-6-hydroxy-5′-methyl-4-pentyl-2′-(prop-1-en-2-yl)-1′,2′,3′,4′-tetrahydro-[1,1′-biphenyl]-2-yl)oxy)carbonyl)cyclopropyl) phosphate ammonium salt], the values for the half-life in series [1] and in series [2] were 45 min and above 240 min, respectively. This compound also showed a solubility in the series “physchem” of 57 ± 1.24 µM.
The corresponding values for `C=C(C)[C@@H]1CCC(C)=C[C@H]1c1c(O)cc(CCCCC)cc1OC(=O)C1(OP(=O)(O)OCCCCCCCCC)CC1.N` [14f, 1-((((1′R,2′R)-6-hydroxy-5′-methyl-4-pentyl-2′-(prop-1-en-2-yl)-1′,2′,3′,4′-tetrahydro-[1,1′-biphenyl]-2-yl)oxy)carbonyl)cyclopropyl nonyl phosphate ammonium salt] are above 30 min, above 240 min and 67 ± 5.98 µM.
Taken in the same sequence, the figures for `C=C(C)[C@@H]1CCC(C)=C[C@H]1c1c(O)cc(CCCCC)cc1OC(=O)C1(OP(=O)(O)OCCCCCCCCCC)CC1.N` [14g, decyl (1-((((1′R,2′R)-6-hydroxy-5′-methyl-4-pentyl-2′-(prop-1-en-2-yl)-1′,2′,3′,4′-tetrahydro-[1,1′-biphenyl]-2-yl)oxy)carbonyl)cyclopropyl) phosphate ammonium salt] were above 30 min, above 240 min and 75 ± 2.14 µM.
The corresponding values for `C=C(C)[C@@H]1CCC(C)=C[C@H]1c1c(O)cc(CCCCC)cc1OC(=O)C1(OP(=O)(O)OCC(CCC)CCC)CC1.N` [14h, 1-((((1′R,2′R)-6-hydroxy-5′-methyl-4-pentyl-2′-(prop-1-en-2-yl)-1′,2′,3′,4′-tetrahydro-[1,1′-biphenyl]-2-yl)oxy)carbonyl)cyclopropyl (2-propylpentyl) phosphate ammonium salt] are 26 min, above 240 min and 66 ± 3.17 µM.
Regarding `C=C(C)[C@@H]1CCC(C)=C[C@H]1c1c(O)cc(CCCCC)cc1OC(=O)OCOP(=O)(O)O.N.N` [compound 24, (1′R,2′R)-6-hydroxy-5′-methyl-4-pentyl-2′-(prop-1-en-2-yl)-1′,2′,3′,4′-tetrahydro-[1,1′-biphenyl]-2-yl ((phosphonooxy)methyl) carbonate di-ammonium salt], the half-life in series [2] was above 240 min. In the series “physchem”, this compound yielded a solubility above 500 µM.
